In paper PMC5214259, “Identification of Guanosine 5′-diphosphate as Potential Iron Mobilizer: Preventing the Hepcidin-Ferroportin Interaction and Modulating the Interleukin-6/Stat-3 Pathway” (Scientific Reports, 2017):

Biological target: T1, hepcidin (Homo sapiens, UniProt P81172)
T1 construct: gene HAMP; hepcidin-25 (25 amino acid peptide hormone)
T1 sequence (P81172 60-84 limits assumed): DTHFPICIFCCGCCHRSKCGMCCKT
Assay: UV-visible absorption titration (Kd); thermal shift assay (SYPRO orange, Tm […] to […] °C with equimolar GDP)
Format: binding

Kd: 5.88 µM
SMILES: Nc1nc2c(ncn2[C@@H]2O[C@H](COP(=O)(O)OP(=O)(O)O)[C@@H](O)[C@H]2O)c(=O)[nH]1 [ZINC08215481, guanosine 5′-diphosphate]
